Measured values reported in PMC7079210 (Chembiochem, 2019).

Molecular target: PhdB (phenylacetate decarboxylase), sewage culture version (uncultured Acidobacteriota bacterium, UniProt A0A2P1UAH0)
Format: biochemical

Chain of PhdB (phenylacetate decarboxylase), sewage culture version (A0A2P1UAH0 1-839): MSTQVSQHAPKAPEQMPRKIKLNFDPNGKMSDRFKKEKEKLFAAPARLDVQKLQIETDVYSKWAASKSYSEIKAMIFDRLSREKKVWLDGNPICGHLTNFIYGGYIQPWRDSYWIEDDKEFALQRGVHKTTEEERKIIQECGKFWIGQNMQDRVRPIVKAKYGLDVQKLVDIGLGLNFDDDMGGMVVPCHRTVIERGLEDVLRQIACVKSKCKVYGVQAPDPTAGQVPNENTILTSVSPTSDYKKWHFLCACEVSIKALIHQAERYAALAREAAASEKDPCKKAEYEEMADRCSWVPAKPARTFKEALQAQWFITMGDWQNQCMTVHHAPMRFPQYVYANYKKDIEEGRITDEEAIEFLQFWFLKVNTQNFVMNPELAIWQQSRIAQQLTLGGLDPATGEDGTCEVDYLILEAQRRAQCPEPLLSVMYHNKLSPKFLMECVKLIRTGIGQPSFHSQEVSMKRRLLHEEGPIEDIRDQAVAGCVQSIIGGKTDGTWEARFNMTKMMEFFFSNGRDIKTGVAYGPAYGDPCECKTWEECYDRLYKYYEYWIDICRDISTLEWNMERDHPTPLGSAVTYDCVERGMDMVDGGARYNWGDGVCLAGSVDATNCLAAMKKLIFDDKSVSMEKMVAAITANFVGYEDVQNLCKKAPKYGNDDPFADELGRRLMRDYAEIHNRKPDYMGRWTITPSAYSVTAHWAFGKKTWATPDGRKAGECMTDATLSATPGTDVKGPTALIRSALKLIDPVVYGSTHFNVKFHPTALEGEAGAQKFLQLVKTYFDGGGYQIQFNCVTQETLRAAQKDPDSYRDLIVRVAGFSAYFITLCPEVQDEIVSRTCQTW

Ki: 370 ± 30 µM
SMILES: O=C(O)C(F)(F)c1ccccc1 [α,α‐difluorophenylacetate]
